Measured values as given in US11951167B2, “Targeted liposomes” (GEORGETOWN UNIVERSITY, priority 2012, dated 2024).

Legend:
HT-29 cells = assay: XTT cell viability, IH formulations; format: cell-based; details: Homo sapiens, 24 h
Protocol: (§1) After 24 hours, the media was replaced with serum-free medium, overlaid with 100 μL of increasing concentrations of either scL-IH nanocomplex, prepared as described above in Example 26, unliganded nanocomplex (L-IH), free IH or LipA only in serum-free medium. The cells were, incubated for 5 hours and then supplemented with FBS. […] The IC50 was interpolated from the graph of the log of drug concentration versus the fraction of surviving cells.

PANC-1 cells = assay: XTT cell viability, IH formulations; format: cell-based, human
Protocol: as §1

Hep G2 cells = assay: XTT cell viability, IH formulations; format: cell-based, human
Protocol: as §1

HT-29 xenograft tumors = assay: Anti-tumor efficacy in subcutaneous colon xenografts; format: in vivo, athymic nude mice
Protocol: In our initial in vivo experiment, we assessed the anti-tumor efficacy of various molar ratios of liposome to IH. Tumors of human colon tumor cell line HT-29 were induced in female athymic nude mice (5-10 animals/group) by the subcutaneous injection of 3.12×10^5 cells/site/mouse suspended in Matrigel® collagen basement solution. When the tumors reached ˜100 mm^3 treatment was initiated. […] Groups of animals were also treated with Free IH, scL without IH, the nanocomplex without the targeting moiety (Lip-IH), as well as a group of untreated mice. The mice were IV injected twice weekly to a total of 15 injections. […] Thus, in the remainder of the studies the optimal ratio of 1:1 (Liposome:IH) was used in preparation of the scL-IH nanocomplex. […] Here also the mice received a total of 15 intravenous injections.

KMS-11 cells [1] = assay: Cell viability by Trypan Blue counting, MEL formulations; format: cell-based; details: Homo sapiens, KMS-11, 48 h
Protocol: The size of the scL-MEL nanocomplex was 45 and 57 nm, respectively.
For these in vitro cell survival studies, the human multiple myeloma cell line KMS-11 was used. These are non-adherent cells and grow in suspension. 4×10^5 cells in 2.6 ml of serum free media were incubated in a sterile 50 ml centrifuge tube with 400 ul of the scL-MEL (at either ratio) or unencapsulated MEL for one hour. Following this incubation, the medium was supplemented with fetal bovine serum to a final concentration of 10% (0.3 ml/tube). After incubation for an additional 47 h, cell viability was determined by Trypan Blue counting of the cells. To accomplish this, one part trypan blue solution is mixed with 1 part cell suspension (1:1 dilution) in a 2 mL eppendorf tube (e.g. 200 μL trypan blue is mixed with 200 μL cell suspension). Using a hemacytometer and a microscope the number of viable cells (unstained) and dead cells (stained) are counted. The average number of cells per 0.1 mm^3 is calculated and the number of cells per mL determined. The percent of viable cells is calculated as follows: Viable Cells %=(Number of viable cells/Number of Cells)*100
This complex was subsequently lyophilized and the samples stored in a desiccator at 2-8° C. After one week of storage the lyophilized scL-Mel complex was reconstituted with endotoxin free water and used to transfect KMS-11 cells as described above. […]

KMS-11 cells [2] = assay: Cell viability, MEL or scL-MEL combined with scL-p53; format: cell-based; details: Homo sapiens, scL-p53 DNA dose 0.2 ug/4×10^5 cells in the combination
Protocol: Cells (4×10^5 per tube) were transfected with different scL/MEL complexes containing increasing doses of MEL. The scL-p53 was prepared as previously described (U.S. Pat. No. 7,780,822). The DNA dose used for all transfections was 0.2 ug/4×10^5 cells. […] The IC20 was used to allow detection of an additive or synergistic effect of the two treatments. The KMS-11 cells were transfect with Free (unencapsulated) MEL alone, scL-MEL alone, or the combination of Free (unencapsulated) or scL encapsulated MEL plus scL-p53 (FIG. 37).

topoisomerase I = target: T1, topoisomerase I (Homo sapiens, UniProt P11387); details: cited from earlier work
T1 sequence (P11387 1-765): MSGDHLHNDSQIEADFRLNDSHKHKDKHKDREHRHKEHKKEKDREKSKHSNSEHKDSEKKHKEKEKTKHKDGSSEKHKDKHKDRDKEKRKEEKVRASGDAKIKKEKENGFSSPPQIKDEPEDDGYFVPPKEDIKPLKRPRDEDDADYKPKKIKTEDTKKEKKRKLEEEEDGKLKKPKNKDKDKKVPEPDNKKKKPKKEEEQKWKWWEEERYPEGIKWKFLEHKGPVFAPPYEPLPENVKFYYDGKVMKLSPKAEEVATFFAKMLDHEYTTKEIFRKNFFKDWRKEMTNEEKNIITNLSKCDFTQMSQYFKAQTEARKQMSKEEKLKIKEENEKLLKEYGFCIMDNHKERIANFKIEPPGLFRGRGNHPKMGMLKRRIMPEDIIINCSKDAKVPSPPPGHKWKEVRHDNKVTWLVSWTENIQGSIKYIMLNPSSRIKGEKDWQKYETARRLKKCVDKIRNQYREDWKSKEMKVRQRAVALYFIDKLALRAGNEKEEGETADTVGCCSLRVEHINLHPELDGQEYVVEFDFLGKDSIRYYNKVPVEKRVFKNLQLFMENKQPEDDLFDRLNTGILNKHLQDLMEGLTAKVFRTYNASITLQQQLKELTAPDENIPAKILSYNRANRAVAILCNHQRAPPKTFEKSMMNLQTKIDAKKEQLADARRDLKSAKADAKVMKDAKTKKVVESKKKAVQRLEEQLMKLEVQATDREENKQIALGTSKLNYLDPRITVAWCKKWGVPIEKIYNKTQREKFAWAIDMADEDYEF

For CCc1c2c(nc3ccc(OC(=O)N4CCC(N5CCCCC5)CC4)cc13)-c1cc3c(c(=O)n1C2)COC(=O)[C@]3(O)CC [IH, Irinotecan], the IC50 (HT-29 cells) was over 10 µM, the “cell kill at the low doses tested” value (PANC-1 cells) was “no effect” and the “cell kill at the low doses tested” value (Hep G2 cells) was “no effect”. The tumor growth (HT-29 xenograft tumors; first experiment, IH 10 mg/kg i.v. twice weekly, 15 injections, Liposome:IH 1:1 for the complex) was “minimal effect on tumor growth” and the tumor growth (HT-29 xenograft tumors; second experiment (fresh vs lyophilized), IH 10 mg/kg, Liposome:IH 1:1, 15 injections) was “only minimal effect”.
In the case of N[C@@H](Cc1ccc(N(CCCl)CCCl)cc1)C(=O)O [MEL, melphalan], the IC50 (KMS-11 cells [1]) is reported as 17.6 µM and the IC50 (KMS-11 cells [2]) is reported as 10.9 µM.
For CCc1c2c(nc3ccc(O)cc13)-c1cc3c(c(=O)n1C2)COC(=O)[C@]3(O)CC [SN-38, 7-ethyl-10-hydroxy-camptothecin], the “potency relative to parent compound irinotecan” value (topoisomerase I) is listed as “One thousand-fold more potent”.
